Reference: PubChem BioAssay AID330 (DTP/NCI, 2004)
Values joined by “and” are separate entries in the source; they are usually repeats but may differ in a detail not shown here. Identical values can stand only once. Toxic doses and inconclusive results are not listed. The calls were made as follows: active = survival T/C of 150% or more; inactive = T/C below 125% in these data.

Tested on: P388 leukemia ip, CD2F1 mice, survival T/C
Test: NCI In Vivo Anticancer Drug Screen. Data for tumor model P388 Leukemia (intraperitoneal) in CD2F1 (CDF1) mice
Conditions: endpoint: median survival time, higher = longer survival
Outline: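 Mice carrying the transplanted tumor received test compound or vehicle. Survival was recorded in each group, and the value is the treated-group measurement divided by that of the vehicle-treated control group.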

[1] = dose: 50.0 mg/kg/injection, schedule: Q01DX005 (ip), vehicle: Klucel (hydroxypropylcellulose) (HPC)
[2] = dose: 100.0 mg/kg/injection, schedule: Q01DX005 (ip), vehicle: Klucel (hydroxypropylcellulose) (HPC)
[3] = dose: 200.0 mg/kg/injection, schedule: Q01DX005 (ip), vehicle: Klucel (hydroxypropylcellulose) (HPC)
[4] = dose: 50.0 mg/kg/injection, schedule: Q01DX009 (ip), vehicle: Klucel (hydroxypropylcellulose) (HPC)
[5] = dose: 200.0 mg/kg/injection, schedule: Q01DX009 (ip), vehicle: Klucel (hydroxypropylcellulose) (HPC)
[6] = dose: 50.0 mg/kg/injection, schedule: Q01DX005 (ip), vehicle: saline with Tween-80
[7] = dose: 100.0 mg/kg/injection, schedule: Q01DX005 (ip), vehicle: saline with Tween-80
[8] = dose: 200.0 mg/kg/injection, schedule: Q01DX005 (ip), vehicle: saline with Tween-80
[9] = dose: 200.0 mg/kg/injection, schedule: Q01DX009 (ip), vehicle: saline with Tween-80

Measured: T/C

CSc1ccccc1C(=O)O
inactive: dose: 100.0 mg/kg/injection, schedule: Q04DX002 (ip), vehicle: saline with Tween-80 104 % of control | dose: 200.0 mg/kg/injection, schedule: Q04DX002 (ip), vehicle: saline with Tween-80 101 % of control | dose: 400.0 mg/kg/injection, schedule: Q04DX002 (ip), vehicle: saline with Tween-80 102 % of control

CCN1C(=O)C(=C2C=C(c3ccccc3)C(C#N)(c3ccccc3)C(c3ccccc3)=C2)C(=O)N(CC)C1=S (stereo not drawn)
inactive: [1] 99 % of control | [2] 97 % of control | [3] 98 % of control

Cc1nc(-c2ccccc2)c2c(C)[nH]c(-c3ccccc3)c2n1
inactive: [4] 110 % of control | dose: 100.0 mg/kg/injection, schedule: Q01DX009 (ip), vehicle: Klucel (hydroxypropylcellulose) (HPC) 112 % of control | [5] 104 % of control

N#CCCn1nc(SC2CCCCC2)c(=O)[nH]c1=O
inactive: dose: 25.0 mg/kg/injection, schedule: Q01DX005 (ip), vehicle: water 108 % of control | dose: 50.0 mg/kg/injection, schedule: Q01DX005 (ip), vehicle: water 103 % of control | dose: 100.0 mg/kg/injection, schedule: Q01DX005 (ip), vehicle: water 98 % of control | dose: 200.0 mg/kg/injection, schedule: Q01DX005 (ip), vehicle: water 108 % of control

Cc1ccc(S(=O)(=O)/C=C/C(=O)c2cccs2)cc1
inactive: dose: 100.0 mg/kg/injection, schedule: Q04DX002 (ip), vehicle: saline 99 % of control | dose: 200.0 mg/kg/injection, schedule: Q04DX002 (ip), vehicle: saline 100 % of control | dose: 400.0 mg/kg/injection, schedule: Q04DX002 (ip), vehicle: saline 107 % of control

O=C1CSC(c2c(F)cccc2F)N1c1nncs1 (stereo not drawn)
inactive: [6] 98 % of control | [7] 100 % of control | [8] 98 % of control

Nc1ncnc2c1ccn2C1OC(CSCCC(N)C(=O)O)C(O)C1O (stereo not drawn)
inactive: dose: 0.5 mg/kg/injection, schedule: Q01DX009 (ip), vehicle: water 98 % of control | dose: 1.0 mg/kg/injection, schedule: Q01DX009 (ip), vehicle: water 102 % of control | dose: 2.0 mg/kg/injection, schedule: Q01DX009 (ip), vehicle: water 97 % of control | dose: 4.0 mg/kg/injection, schedule: Q01DX009 (ip), vehicle: water 93 % of control | dose: 8.0 mg/kg/injection, schedule: Q01DX009 (ip), vehicle: water 104 % of control

CCc1nc(N)nc(N)c1-c1ccc(N2CCN(C)CC2)cc1
inactive: [6] 103 % of control | [7] 100 % of control | [8] 99 % of control

Nc1cc2[nH]cnc2c(=O)[nH]1
inactive: dose: 6.25 mg/kg/injection, schedule: Q01DX009 (ip), vehicle: suspension in saline 109 % of control and 95 % of control | dose: 12.5 mg/kg/injection, schedule: Q01DX009 (ip), vehicle: suspension in saline 101 % of control and 113 % of control and 97 % of control | dose: 25.0 mg/kg/injection, schedule: Q01DX009 (ip), vehicle: Klucel (hydroxypropylcellulose) (HPC) 100 % of control | dose: 25.0 mg/kg/injection, schedule: Q01DX009 (ip), vehicle: suspension in saline 103 % of control and 107 % of control and 96 % of control | [4] 108 % of control | dose: 100.0 mg/kg/injection, schedule: Q01DX009 (ip), vehicle: suspension in saline 99 % of control and 113 % of control | [5] 100 % of control | [9] 95 % of control | dose: 200.0 mg/kg/injection, schedule: Q01DX009 (ip), vehicle: suspension in saline 86 % of control and 87 % of control

COc1cc2c(cc1OC(C)=O)C=CCCC2=O
inactive: dose: 100.0 mg/kg/injection, schedule: Q04DX003 (ip), vehicle: saline with Tween-80 105 % of control | dose: 200.0 mg/kg/injection, schedule: Q04DX003 (ip), vehicle: saline with Tween-80 100 % of control | dose: 400.0 mg/kg/injection, schedule: Q04DX003 (ip), vehicle: saline with Tween-80 105 % of control

O=[N+]([O-])c1cc(Br)cc2c1[nH]c1nc3ccc(C(F)(F)F)cc3nc12
inactive: dose: 100.0 mg/kg/injection, schedule: Q04DX003 (ip), vehicle: saline 91 % of control | dose: 200.0 mg/kg/injection, schedule: Q04DX003 (ip), vehicle: saline 95 % of control | dose: 400.0 mg/kg/injection, schedule: Q04DX003 (ip), vehicle: saline 94 % of control

OC(CCC(O)(C(F)(F)F)C(F)(F)F)(C(F)(F)F)C(F)(F)F
inactive: dose: 6.25 mg/kg/injection, schedule: Q01DX005 (ip), vehicle: saline 99 % of control | dose: 12.5 mg/kg/injection, schedule: Q01DX005 (ip), vehicle: saline 101 % of control | dose: 25.0 mg/kg/injection, schedule: Q01DX005 (ip), vehicle: saline 100 % of control | [6] 103 % of control

COC(=O)C(=O)C(C#N)c1ccc([N+](=O)[O-])cc1 (stereo not drawn)
inactive: dose: 60.0 mg/kg/injection, schedule: Q01DX005 (ip), vehicle: saline with Tween-80 101 % of control | dose: 120.0 mg/kg/injection, schedule: Q01DX005 (ip), vehicle: saline with Tween-80 93 % of control | dose: 240.0 mg/kg/injection, schedule: Q01DX005 (ip), vehicle: saline with Tween-80 95 % of control

C(#CCOc1ccc2c(c1)OCO2)COc1ccc2c(c1)OCO2
inactive: dose: 50.0 mg/kg/injection, schedule: Q01DX009 (ip), vehicle: other 103 % of control | dose: 100.0 mg/kg/injection, schedule: Q01DX009 (ip), vehicle: other 104 % of control | dose: 200.0 mg/kg/injection, schedule: Q01DX009 (ip), vehicle: other 105 % of control

Cc1ccc(NS(=O)(=O)c2ccc(Cl)cc2)cc1Cl
inactive: dose: 100.0 mg/kg/injection, schedule: Q01DX009 (ip), vehicle: saline with Tween-80 104 % of control | [9] 98 % of control | dose: 400.0 mg/kg/injection, schedule: Q01DX009 (ip), vehicle: saline with Tween-80 100 % of control

CN(C)CCC[n+]1cc2c3ccccc3c(N)cc2c2ccccc21
inactive: dose: 3.13 mg/kg/injection, schedule: Q04DX003 (ip), vehicle: water 104 % of control | dose: 6.25 mg/kg/injection, schedule: Q04DX003 (ip), vehicle: water 121 % of control | dose: 12.5 mg/kg/injection, schedule: Q04DX003 (ip), vehicle: water 109 % of control | dose: 25.0 mg/kg/injection, schedule: Q04DX003 (ip), vehicle: water 109 % of control

Cc1oc2ccccc2c(=O)c1CN1CCN(c2ccccn2)CC1
inactive: dose: 60.0 mg/kg/injection, schedule: Q01DX005 (ip), vehicle: saline 101 % of control | dose: 120.0 mg/kg/injection, schedule: Q01DX005 (ip), vehicle: saline 101 % of control

CCOC(=O)C1=C(N)OC(c2ccccc2)=C(C#N)C1c1ccc(C)cc1 (stereo not drawn)
inactive: [1] 110 % of control | [2] 107 % of control | [3] 100 % of control

CC(C)[c-]1[c-][c-][c-][c-]1.CC(C)[c-]1[c-][c-][c-][c-]1.[Cl][Zr][Cl]
inactive: dose: 3.12 mg/kg/injection, schedule: Q01DX009 (ip), vehicle: saline with Tween-80 112 % of control | dose: 6.25 mg/kg/injection, schedule: Q01DX009 (ip), vehicle: saline with Tween-80 119 % of control | dose: 12.5 mg/kg/injection, schedule: Q01DX009 (ip), vehicle: saline with Tween-80 117 % of control

CCCCCn1[nH]nc(C(=O)OC)c1=O (tested in a mixture with another compound)
inactive: [1] 102 % of control | [2] 95 % of control | [3] 103 % of control

ON1c2ccccc2-c2ccccc2C1(c1ccccc1)c1ccccc1
inactive: [6] 94 % of control | [7] 99 % of control | [8] 90 % of control
